In patent US20020127605A1 (priority 2000, published 2002):

molecular target: T1, recombinant rat CyPA-GST fusion protein (Rattus norvegicus, UniProt P10111); assay: Rotamase (prolyl peptidyl cis-trans isomerase) inhibition, chymotrypsin-coupled cuvette assay; type: biochemical; conditions: not given
T1 construct: made in house; host or cells: E. coli BL21
From the text: A number of substrates for rotamase are known in the art or can be derived from those known. Typically, the substrate contacts a sample containing a protein with rotamase activity and the conversion of the substrate is detected after a period of time. The method for detecting conversion of the substrate will vary with the particular substrate chosen. One method has been termed the Ki test (See Harding, et al., Nature, 341:758-760 (1989). The cis-trans isomerization of an alanine-proline bond in a model substrate, N-succinyl-Ala-Ala-Pro-Phe-p-nitroanilide, is monitored spectrophotometrically in a chymotrypsin-coupled assay. The action of chymotrypsin releases p-nitroaniline from only the trans form of the substrate. The amount of p-nitroaniline can be monitored in a spectrophotometer, for example. Other methods of detecting the presence of p-nitroaniline can also be used. The inhibition of this reaction caused by different concentrations of inhibitor is determined and the data are analyzed as a change in first-order rate constant as a function of inhibitor concentration, which yields the Ki value.
The following were added to a plastic cuvette: […] of ice cold assay buffer (25 mM HEPES, pH 7.8, 100 mM NaCl), 10 μL of CyP A (2.5 μM in 10 mM Tris-Cl pH 7.5, 100 mM NaCl, 1 mM dithiothreitol), 25 μL of chymotrypsin (50 mg/ml in 1 mM HCl), and 10 μL of test compound, at various concentrations, in dimethyl sulfoxide. The reaction was initiated by the addition of 5 μL of substrate (succinyl-Ala-Phe-Pro-Phe-para-nitroanilide, 5 mg/mL in 470 mM LiCl in trifluoroethanol). The absorbance at 390 nm versus time was monitored for 90 seconds using a spectrophotometer and the rate constants were determined from the absorbance versus time data files.
The IC50 values that were obtained for representative compounds in the following Table I refer to the concentration that inhibits 50% of the rotamase activity in a sample. […] The Cyclophilin utilized was a recombinant rat CyPA-GST fusion protein: CypA was amplified from rat brain cDNA using standard PCR methods, primed with the following sequences: 5′ CCCCCCGGGAGTCAACCCCACCGTGTTCTTCGA 3′ and 5′ GGAGATCTAGAGTTGTCCACAGTCGGAGATGGT 3′. The resulting fragment (573 base pairs) was cloned into pCRII and amplified. The CyP sequence was cut out with Smal and EcoRl and cloned into the Smal/EcoRl sites in pGEX2TK (Pharmacia). This plasmid was transformed into BL21 E. coli cells for expression of the GST-CyPA fusion protein.

T1 sequence (P10111 2-164): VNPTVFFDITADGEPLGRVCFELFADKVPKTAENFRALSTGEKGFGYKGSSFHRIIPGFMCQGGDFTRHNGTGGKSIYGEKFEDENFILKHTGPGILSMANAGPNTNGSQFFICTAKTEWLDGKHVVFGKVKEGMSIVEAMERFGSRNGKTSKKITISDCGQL

SMILES	IC50
Cc1ccc(S(=O)(=O)N(c2cccc(NC(=O)Nc3cc(Cl)cc(Cl)c3)c2)S(=O)(=O)c2ccc(C)cc2)cc1 [Compound 2]	0.149 µM
COc1ccc(S(=O)(=O)N(c2cccc(NC(=O)c3cc(Cl)cc(Cl)c3)c2)S(=O)(=O)c2ccc(C)cc2)cc1 [Compound 3]	0.955 µM
O=C(Nc1cccc(N(S(=O)(=O)c2cc(Cl)cc(Cl)c2)S(=O)(=O)c2cc(Cl)cc(Cl)c2)c1)Nc1c(Cl)cccc1Cl [Compound 6]	0.99 µM
O=C(Nc1cc(Cl)cc(Cl)c1)Nc1cccc(N(S(=O)(=O)c2cc(Cl)cc(Cl)c2)S(=O)(=O)c2cc(Cl)cc(Cl)c2)c1 [Compound 7]	1.22 µM
O=C(Nc1cc(Cl)cc(Cl)c1)[C@@H]1CC[C@H](NC(=S)Nc2cc(Cl)cc(Cl)c2)C1 [Compound 17]	0.854 µM

same assay, conditions: recombinant rat CyPA-GST fusion protein; values without asterisk; read-out: IC50 (rotamase activity)

SMILES	IC50
COc1ccc(S(=O)(=O)N(c2cccc(NC(=O)Nc3cc(Cl)cc(Cl)c3)c2)S(=O)(=O)c2ccc(C)cc2)cc1 [Compound 1, [(3,5-dichlorophenyl)amino]-N-(3-{[(4-methoxylihenyl)sulfonyl][(4-methylphenyl)sulfonyl]amino}phenyl)formamide]	0.162 µM
COc1ccc(S(=O)(=O)N(c2cccc(N(S(=O)(=O)c3cc(Cl)cc(Cl)c3)S(=O)(=O)c3cc(Cl)cc(Cl)c3)c2)S(=O)(=O)c2ccc(C)cc2)cc1 [Compound 4, (3-{bis[(3,5-dichlorophenyl)sulfonyl]amino}phenyl)[(4-methoxy-phenyl)sulfonyl][(4-methylphenyl)sulfonyl]amine]	0.995 µM
COc1ccc(S(=O)(=O)N(c2cccc(N(S(=O)(=O)c3cc(Cl)cc(Cl)c3)S(=O)(=O)c3cc(Cl)cc(Cl)c3)c2)S(=O)(=O)c2ccc(OC)cc2)cc1 [Compound 10, (3-{Bis[(3,5-dichlorolphenyl)sulfonyl]amino}phenyl)bis[(4-methoxyphenyl)sulfonyl]amine]	0.732 µM
FC(F)(F)c1cc(NC(=S)NC2CCCCC2NC(=S)Nc2cc(C(F)(F)F)cc(C(F)(F)F)c2)cc(C(F)(F)F)c1 (centres unmarked) [Compound 12, {[3,5-bis(trifluoromethyl)phenyl]amino}({2-[({[3,5-bis(trifluoromethyl)phenyl]amino}thioxomethyl)amino]cyclohexyl}amino)methane-1-thione]	0.767 µM
S=C(Nc1ccc(Cl)c(Cl)c1)NC1CCCCC1NC(=S)Nc1ccc(Cl)c(Cl)c1 (centres unmarked) [Compound 14, [(3,4-dichlorophenyl)amino]{[2-({[(3,4-dichlorophenyl)amino]thioxomethyl}amino)cyclohexyl]amino}methane-1-thione]	0.786 µM
S=C(Nc1cc(Cl)cc(Cl)c1)NC1CCCCC1NC(=S)Nc1cc(Cl)cc(Cl)c1 (centres unmarked) [Compound 15, [(3,5-dichlorophenyl)amino]{[2-({[(3,5-dichlorophenyl)amino]thioxomethyl}amino)cyclohexyl]amino}methane-1-thione]	0.61 µM
O=C(Nc1cc(Cl)cc(Cl)c1)N[C@H]1CC[C@@H](NC(=O)Nc2cc(Cl)cc(Cl)c2)CC1 [Compound 16, cis-[(3,5-Dichlorophenyl)amino]-N-(4-{[(3,5-dichlorolphenyl)amino]carbonylamino}cyclohexyl)formamide]	1.53 µM
O=C(Nc1cc(Cl)cc(Cl)c1)[C@@H]1C=C[C@H](NC(=S)Nc2cc(Cl)cc(Cl)c2)C1 [Compound 18, (1S,3R)-N-(3,5-dichlorophenyl)[4-({[(3,5-dichlorolphenyl)amino]thioxomethyl}amino)cyclopent-2-enyl]formamide]	0.901 µM
O=C(Nc1cc(Cl)cc(Cl)c1)[C@H]1CC[C@@H](NC(=S)Nc2cc(Cl)cc(Cl)c2)C1 [Compound 19]	0.754 µM
S=C(Nc1cc(Cl)cc(Cl)c1)Nc1cccc(C=C(c2ccc(Cl)cc2)c2ccc(Cl)cc2)c1 [Compound 20]	0.188 µM
O=C(NNC(=S)Nc1cc(Cl)cc(Cl)c1)c1cccc(OCc2cc(C(F)(F)F)cc(C(F)(F)F)c2)c1 [Compound 23]	0.895 µM
O=C(COc1cccc(NC(=O)c2cc(Cl)cc(Cl)c2)c1)Nc1cc(Cl)cc(Cl)c1 [Compound 24, N-(3,5-dichlorophenyl)-2-{3-[(3,5-dichlorolphenyl)carbonylamino]phenoxy}ethanamide]	0.909 µM
